Assay results taken from article PMC8698299, “Targeting Mycobacterial F-ATP Synthase C-Terminal α Subunit Interaction Motif on Rotary Subunit γ” (Antibiotics, 2021).

Biological target: T1, F-ATP synthase (subunit γ, site proposed by docking) (Mycolicibacterium smegmatis, UniProt A0R201)
T1 construct: gene atpG; Recombinant M. smegmatis WT F-ATP synthase, purified and reconstituted into proteoliposomes; with other F-ATP synthase subunits (α3:β3:γ:δ:ε:a:b:b’:c9), in particular subunit α
Experiment: ATP synthesis by reconstituted recombinant MsF-ATP synthase, continuous luciferase assay (also IMV ATP synthesis, IC50 […])
Assay type: biochemical

T1 sequence (A0R201 2-307): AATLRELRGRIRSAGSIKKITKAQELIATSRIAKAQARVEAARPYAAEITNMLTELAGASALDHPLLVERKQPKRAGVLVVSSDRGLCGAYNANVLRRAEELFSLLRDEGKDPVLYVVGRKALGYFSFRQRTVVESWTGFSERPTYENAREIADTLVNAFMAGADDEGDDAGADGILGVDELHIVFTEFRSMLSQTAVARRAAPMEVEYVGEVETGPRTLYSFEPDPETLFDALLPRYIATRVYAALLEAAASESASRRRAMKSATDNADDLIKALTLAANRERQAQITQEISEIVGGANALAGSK

Compound `COc1cc(NC(=O)C2=C(C)OCCS2)c(Cl)cc1C(=O)NCCCN1CCCC1=O` [AlMF1, N-(2-chloro-5-methoxy-4-((3-(2-oxopyrrolidin-1-yl)propyl)carbamoyl)phenyl)-2-methyl-5,6-dihydro-1,4-oxathiine-3-carboxamide] has an inhibition at 50 µM of 71%.
